# Data as given in patent US20180271930A1, “METHOD FOR RAISING POULTRY” (priority 2015, published 2018).
# How the values were obtained:
# [1] = Examination 1: body weight of initial-phase chicks fed additive-containing feed for 3 days; assay type: in vivo, broiler chicks of the Chunky breed (Ross 308); conditions: n = 6
# Procedure: Newly hatched broiler chicks of the Chunky breed (Ross 308, Ross Breeders Ltd.) were tested. […] Blood and skeletal muscles were collected to observe gene expression levels of MyoD, myogenin, myostatin, and IGF-I (insulin-like growth factor-I). An ammonium salt was used as oxidized glutathione (GSSG). The GSSG contained 95.6% by mass of oxidized glutathione, and the content of reduced glutathione mixed therein was 0.1% by mass or less. […] The amount of GSSG used herein was determined in terms of the amount of free oxidized glutathione. In all the following Examinations, the amounts of GSSG are expressed in terms of the amount of free oxidized glutathione.
# [2] = Examination 2-2: breeding performance at 40 days old after GSSG prestarter feed; assay type: in vivo, broiler chicks (Ross 308); conditions: 0.01% by mass GSSG feed for first 72 h, n = 12
# Procedure: Thereafter, the composition was replaced by an ordinary feed composition of the same type and the chicks were raised until they became 40 days old. […] Two groups, which were a control group and a GSSG addition group (0.01% by mass) were set. In each group, 6 males and 6 females were tested. Chicks received at 0 day old were fed with a test feed composition (initial-phase feed composition) during 72 hours after the receipt. […] The body weight was measured, and the meat yield and feed conversion ratio were determined. As the initial-phase feed composition, the 0.01% by mass GSSG-containing feed composition used in Examination 1 was used in the GSSG addition group, and the feed composition (ME3,100 kcal/kg, CP21) free of GSSG used in Examination 1 was used for the control group. […] An ammonium salt was used as oxidized glutathione (GSSG). The GSSG contained 95.6% by mass of oxidized glutathione, and the content of reduced glutathione mixed therein was 0.1% by mass or less. […] The term “meat yield” refers to a proportion of meat excluding bones and fats with respect to the body weight. The meat yield can be determining by performing slaughtering and butchering, collecting meat alone, and weighing the collected meat.
# myogenin = experiment: Examination 4: myogenin gene expression in superficial pectoral muscle at 3 days old; assay type: in vivo, broiler chicks; conditions: 0.01% by mass additive in feed for 3 days, FIG. 3A, n=4
# Procedure: FIGS. 3A to 3C illustrate graphs showing the expression of genes related to skeletal muscle cell differentiation in superficial pectoral muscles upon administration of each feed composition in Examination 4 (n=4). […] A relative value of the expression level of each factor is expressed as an average±standard deviation of values obtained by dividing the expression levels of each factor by the expression level of RPS9. Newly hatched broiler chicks (Ross Breeders Ltd.) were tested. A control group (=additive-free group), a GSSG addition group (0.01% by mass), and a GSH addition group (0.01% by mass) each consisting of 5 males and 5 females were set and fed with a feed composition for 3 days. […] At this timing, 2 males and 2 females in each group were slaughtered to collect blood and skeletal muscles. The gene expression levels of the MyoD family (myogenin, myostatin, and Pax7) were observed. […] Statistics were analyzed using a mixed model in consideration of a gender difference and an interaction between males and females. A method for determining gene expressions of the above factors in skeletal muscles is described above. An ammonium salt was used as oxidized glutathione (GSSG). The GSSG contained 95.6% by mass of oxidized glutathione, and the content of reduced glutathione mixed therein was 0.1% by mass or less. […]
# Pax7 = experiment: Examination 3: Pax7 expression in skeletal muscle cells in differentiation medium; assay type: cell-based, broiler chicks (Ross 308); conditions: 100 μM GSSG in differentiation medium; 12 hours after start of culture; FIG. 2D, n=6
# Description: FIGS. 2A to 2D illustrate graphs showing the expression levels of genes related to skeletal muscle cell differentiation upon the addition of GSSG during the skeletal muscle cell differentiation period in Examination 3 (n=6). […] A relative value of the expression level of each factor is expressed as an average±standard deviation of values obtained by dividing the expression levels of each factor by the expression level of RPS9. Each different symbol denotes a significant difference in the […] multiple comparison test (P<0.05). Oxidized glutathione (GSSG) was added to a differentiation-promoting culture medium system of skeletal muscle cells collected from newly hatched broiler chicks (Ross 308, Ross Breeders Ltd.) (under culture conditions simulating the state of skeletal muscle cells of neonatal chicks), phosphorylation of signal factors was analyzed by Western blot, and the differentiation inhibition mechanism was investigated. Expression levels of MyoD, myostatin, IGF-I, and Pax7 as genes involved in myogenesis were determined. Pax7 is a muscle satellite cell marker. […] The expression level of Pax7 was determined by the method described in Examination 1 except that the primer set used herein was a primer set listed in the table below. […] The cells were recovered 0, 12, and 24 hours later, and the expression levels of genes involved in myogenesis were determined. […]
substance,measurement,setting,value
oxidized glutathione [GSSG],Weight at 3 days old,[1]; feed with 0.01% by mass GSSG for 3 days,78.1 ± 4.0 g
same,Weight at 3 days old,[1]; feed with 0.1% by mass GSSG for 3 days,72.8 ± 5.6 g
same,Meat yield,[2]; 40 days old,42.1 ± 1.1 % by mass
same,Weight,[2]; 40 days old,2214 ± 79 g
same,Feed conversion ratio (mass ratio),[2]; until 40 days old,1.52 ± 0.09
same,myogenin expression level vs control group,myogenin,significantly decreased
same,expression of Pax7 vs control group,Pax7,significantly increased
